Assay results reported in patent US9856245B2, “GPR40 agonists for the treatment of type II diabetes” (Janssen Pharmaceutica NV, priority 2015, dated 2018).
Where “and” joins values, the source holds several entries; their conditions need not be identical. Identical values can stand only once.

Molecular target: T1, human GPR40 (Homo sapiens, UniProt O14842)
T1 construct: expressed in transfected cells
Assay: GPR40 calcium flux assay (hGPR40 Ca2+ Assay)
Assay type: cell-based
Conditions: transfected HEK293 cells stably expressing human GPR40; Fluo 8 calcium dye; multiple values = repeated testing; read-out: hGPR40 Ca^2+ Assay EC50
Procedure: Compounds were tested in a calcium flux assay using transfected HEK293 cells stably expressing either human GPR40 or rat GPR40. Human GPR40 expressing cells were cultured in DMEM-High Glucose media supplemented with 10% fetal bovine serum, 1× L-Glutamine, 1× Penicillin/Streptomycin and 500 μg/mL G418. Rat GPR40 expressing cells were cultured in DMEM-High Glucose media supplemented with 10% fetal bovine serum and 1 μg/mL puromycin. Cells were plated into poly-D-lysine coated 384-well plates and cultured overnight in a 37° C. humidified tissue culture incubator under 5% CO2/[…] atmosphere. On the day of the experiment, the culture media was replaced with assay buffer (HBSS, 20 mM HEPES, 0.1% BSA) and the cells incubated at 37° C. for 1 h. Calcium-sensitive fluorescent dye (Fluo 8 No-Wash Calcium Dye, ABD Bioquest) was then added and the cells incubated for another 30 min at 37° C. followed by 15 min at room temperature while protected from the light. The cell plate and a plate of diluted compounds of Formula (III) were loaded into a fluorescent plate reader that added compounds onto the cells while measuring the fluorescence intensity of each well. The plate reader recorded fluorescence intensity at 1 second intervals for 8 min and provided the data for analysis in an Excel format. EC50 values were calculated using Prism (GraphPad) software.

T1 sequence (O14842 whole entry): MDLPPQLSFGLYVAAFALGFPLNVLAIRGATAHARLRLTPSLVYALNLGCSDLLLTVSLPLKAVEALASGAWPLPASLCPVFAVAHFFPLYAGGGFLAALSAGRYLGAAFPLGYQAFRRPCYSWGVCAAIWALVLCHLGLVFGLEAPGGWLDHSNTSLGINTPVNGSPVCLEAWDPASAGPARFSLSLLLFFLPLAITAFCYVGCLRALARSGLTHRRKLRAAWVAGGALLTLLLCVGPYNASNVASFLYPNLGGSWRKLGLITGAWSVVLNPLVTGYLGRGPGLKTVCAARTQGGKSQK

SMILES	EC50
COc1ccc(F)c(-n2nnc(COc3cc(C(CC(=O)O)C4CC4)ccn3)c2C2=CCCC2(C)C)c1 (racemic) [Cpd 63, 3-cyclopropyl-3-[2-[[5-(5,5-dimethylcyclopenten-1-yl)-1-(2-fluoro-5-methoxy-phenyl)triazol-4-yl]methoxy]-4-pyridyl]propanoic acid]	1 nM
COc1ccc(F)c(-n2nnc(COc3cccc([C@@H](CC(=O)O)C4CC4)c3)c2N2CCCCC2)c1 [Cpd 44, (3S)-3-cyclopropyl-3-[3-[[1-(2-fluoro-5-methoxy-phenyl)-5-(1-piperidyl)triazol-4-yl]methoxy]phenyl]propanoic acid]	14 nM
COc1ccc(F)c(-n2nnc(COc3cc([C@@H](CC(=O)O)C4CC4)ccn3)c2C2=CCCC2(C)C)c1 [Cpd 64, (3S)-3-cyclopropyl-3-[2-[[5-(5,5-dimethylcyclopenten-1-yl)-1-(2-fluoro-5-methoxy-phenyl)triazol-4-yl]methoxy]-4-pyridyl]propanoic acid]	1 nM
COc1ccc(F)c(-n2ncc(COc3cc(C(CC(=O)O)C4CC4)ccn3)c2C2=CCCC2(C)C)c1 (centres unmarked) [Cpd 65, 3-cyclopropyl-3-[2-[[5-(5,5-dimethylcyclopenten-1-yl)-1-(2-fluoro-5-methoxy-phenyl)pyrazol-4-yl]methoxy]-4-pyridyl]propanoic acid]	1 nM
COc1ccc(F)c(-n2ncc(COc3cccc([C@@H](CC(=O)O)C4CC4)c3)c2C2=CCCC2(C)C)c1 [Cpd 66, (3S)-3-cyclopropyl-3-[3-[[5-(5,5-dimethylcyclopenten-1-yl)-1-(2-fluoro-5-methoxy-phenyl)pyrazol-4-yl]methoxy]phenyl]propanoic acid]	2 nM and 1 nM
COc1ccc(F)c(-n2nnc(COc3cccc([C@@H](CC(=O)O)C4CC4)c3)c2OC2CCCC2)c1 [Cpd 67, (3S)-3-[3-[[5-(cyclopentoxy)-1-(2-fluoro-5-methoxy-phenyl)triazol-4-yl]methoxy]phenyl]-3-cyclopropyl-propanoic acid]	6 nM and 10 nM (2×)
COc1ccc(F)c(-n2nnc(COc3cccc([C@@H](CC(=O)O)C4CC4)c3)c2N2CC3(CCC3)C2)c1 [Cpd 68, (3S)-3-[3-[[5-(6-azaspiro[3.3]heptan-6-yl)-1-(2-fluoro-5-methoxy-phenyl)triazol-4-yl]methoxy]phenyl]-3-cyclopropyl-propanoic acid]	7 nM and 12 nM and 11 nM
COc1ccc(F)c(-n2ncc(COc3cccc([C@@H](CC(=O)O)C4CC4)c3)c2C2CC2)c1 [Cpd 69, (3S)-3-cyclopropyl-3-[3-[[5-cyclopropyl-1-(2-fluoro-5-methoxy-phenyl)pyrazol-4-yl]methoxy]phenyl]propanoic acid]	15 nM and 21 nM and 17 nM
COc1cc(-n2ncc(COc3cccc([C@@H](CC(=O)O)C4CC4)c3)c2C2CC2)c(F)cn1 [Cpd 70, (3S)-3-cyclopropyl-3-[3-[[5-cyclopropyl-1-(5-fluoro-2-methoxy-4-pyridyl)pyrazol-4-yl]methoxy]phenyl]propanoic acid]	16 nM
COc1ccc(F)c(-n2ncc(COc3cc(C(CC(=O)O)C4CC4)c(Cl)cn3)c2C2=CCCC2(C)C)c1 (centres unmarked) [Cpd 71, 3-[5-chloro-2-[[5-(5,5-dimethylcyclopenten-1-yl)-1-(2-fluoro-5-methoxy-phenyl)pyrazol-4-yl]methoxy]-4-pyridyl]-3-cyclopropyl-propanoic acid]	24 nM
COc1ccc(F)c(-n2cc(COc3cccc([C@@H](CC(=O)O)C4CC4)c3)cn2)c1 [Cpd 72, (3S)-3-cyclopropyl-3-[3-[[1-(2-fluoro-5-methoxy-phenyl)pyrazol-4-yl]methoxy]phenyl]propanoic acid]	24 nM and 45 nM and 39 nM
COc1ccc(F)c(-n2ncc(COc3cccc([C@@H](CC(=O)O)C4CC4)c3)c2N2CCOCC2)c1 [Cpd 73, (3S)-3-cyclopropyl-3-[3-[[1-(2-fluoro-5-methoxy-phenyl)-5-morpholino-pyrazol-4-yl]methoxy]phenyl]propanoic acid]	27 nM
COc1ccc(F)c(-n2nnc(/C=C/c3cccc([C@@H](CC(=O)O)C4CC4)c3)c2C2CC2)c1 [Cpd 74, (3S)-3-cyclopropyl-3-[3-[(E)-2-[5-cyclopropyl-1-(2-fluoro-5-methoxy-phenyl)triazol-4-yl]vinyl]phenyl]propanoic acid]	38 nM
COc1ccc(F)c(-n2nnc(COc3cc([C@H](CC(=O)O)C4CC4)ccn3)c2C2=CCCC2(C)C)c1 [Cpd 75, (3R)-3-cyclopropyl-3-[2-[[5-(5,5-dimethylcyclopenten-1-yl)-1-(2-fluoro-5-methoxy-phenyl)triazol-4-yl]methoxy]-4-pyridyl]propanoic acid]	60 nM
COc1ccc(F)c(-n2ncc(/C=C/c3cccc(C(CC(=O)O)C4CC4)c3)c2C2CC2)c1 (centres unmarked) [Cpd 76, 3-cyclopropyl-3-[3-[(E)-2-[5-cyclopropyl-1-(2-fluoro-5-methoxy-phenyl)pyrazol-4-yl]vinyl]phenyl]propanoic acid]	66 nM
COc1ccc(F)c(-n2ncc(CCc3cccc(C(CC(=O)O)C4CC4)c3)c2C2CC2)c1 (centres unmarked) [Cpd 77, 3-cyclopropyl-3-[3-[2-[5-cyclopropyl-1-(2-fluoro-5-methoxy-phenyl)pyrazol-4-yl]ethyl]phenyl]propanoic acid]	66 nM
COc1ccc(F)c(-n2nnc(COc3cc(C(CC(=O)O)C4CC4)c(Cl)cn3)c2C2=CCCC2(C)C)c1 (centres unmarked) [Cpd 78, 3-[5-chloro-2-[[5-(5,5-dimethylcyclopenten-1-yl)-1-(2-fluoro-5-methoxy-phenyl)triazol-4-yl]methoxy]-4-pyridyl]-3-cyclopropyl-propanoic acid]	69 nM
COc1ccc(F)c(-n2nnc(CCc3cccc([C@@H](CC(=O)O)C4CC4)c3)c2C2CC2)c1 [Cpd 79, (3S)-3-cyclopropyl-3-[3-[2-[5-cyclopropyl-1-(2-fluoro-5-methoxy-phenyl)triazol-4-yl]ethyl]phenyl]propanoic acid]	103 nM
COc1ccc(F)c(-n2nnc(COc3cccc([C@@H](CC(=O)O)C4CC4)c3)c2N2CCOCC2)c1 [Cpd 80, (3S)-3-cyclopropyl-3-[3-[[1-(2-fluoro-5-methoxy-phenyl)-5-morpholino-triazol-4-yl]methoxy]phenyl]propanoic acid]	273 nM
COc1ccc(F)c(-n2nnc(COc3cccc([C@@H](CC(=O)O)C4CC4)c3)c2C)c1 [Cpd 82, (3S)-3-cyclopropyl-3-[3-[[1-(2-fluoro-5-methoxy-phenyl)-5-methyl-triazol-4-yl]methoxy]phenyl]propanoic acid]	261 nM and 248 nM
COc1ccc(F)c(-n2nnc(COc3cccc([C@@H](CC(=O)O)C4CC4)c3)c2CC(C)C)c1 [Cpd 83, (3S)-3-cyclopropyl-3-[3-[[1-(2-fluoro-5-methoxy-phenyl)-5-isobutyl-triazol-4-yl]methoxy]phenyl]propanoic acid]	7 nM and 6 nM
COc1ccc(F)c(-n2nnc(COc3cccc([C@@H](CC(=O)O)C4CC4)c3)c2C=C(C)C)c1 [Cpd 84, (3S)-3-cyclopropyl-3-[3-[[1-(2-fluoro-5-methoxy-phenyl)-5-(2-methylprop-1-enyl)triazol-4-yl]methoxy]phenyl]propanoic acid]	38 nM and 31 nM and 37 nM (2×)
COc1ccc(F)c(-n2nnc(COc3cccc([C@@H](CC(=O)O)C4CC4)c3)c2C2CC2)c1 [Cpd 85, (3S)-3-cyclopropyl-3-[3-[[5-cyclopropyl-1-(2-fluoro-5-methoxy-phenyl)triazol-4-yl]methoxy]phenyl]propanoic acid]	65 nM and 63 nM
COc1ccc(F)c(-n2nnc(COc3cccc([C@@H](CC(=O)O)C4CC4)c3)c2C2=CCCC2(C)C)c1 [Cpd 86, (3S)-3-cyclopropyl-3-[3-[[5-(5,5-dimethylcyclopenten-1-yl)-1-(2-fluoro-5-methoxy-phenyl)triazol-4-yl]methoxy]phenyl]propanoic acid]	4 nM and 2 nM
COc1ccc(F)c(-n2cnc(COc3cccc([C@@H](CC(=O)O)C4CC4)c3)c2C2=CCCC2(C)C)c1 [Cpd 87, (3S)-3-cyclopropyl-3-[3-[[5-(5,5-dimethylcyclopenten-1-yl)-1-(2-fluoro-5-methoxy-phenyl)imidazol-4-yl]methoxy]phenyl]propanoic acid]	85 nM and 68 nM
COc1ccc(F)c(-n2nnc(COc3cccc([C@@H](CC(=O)O)C4CC4)c3)c2-c2ccc(C)s2)c1 [Cpd 88, (3S)-3-cyclopropyl-3-[3-[[1-(2-fluoro-5-methoxy-phenyl)-5-(5-methyl-2-thienyl)triazol-4-yl]methoxy]phenyl]propanoic acid]	24 nM and 23 nM
COc1ccc(F)c(-n2ncc(COc3cccc([C@@H](CC(=O)O)C4CC4)c3)c2C=C(C)C)c1 [Cpd 89, (3S)-3-cyclopropyl-3-[3-[[1-(2-fluoro-5-methoxy-phenyl)-5-(2-methylprop-1-enyl)pyrazol-4-yl]methoxy]phenyl]propanoic acid]	11 nM and 9 nM
COc1ccc(F)c(-n2ncc(COc3cccc([C@@H](CC(=O)O)C4CC4)c3)c2Br)c1 [Cpd 90, (3S)-3-[3-[[5-bromo-1-(2-fluoro-5-methoxy-phenyl)pyrazol-4-yl]methoxy]phenyl]-3-cyclopropyl-propanoic acid]	86 nM and 83 nM
COc1ccc(F)c(-n2cnc(COc3cccc([C@@H](CC(=O)O)C4CC4)c3)c2C=C(C)C)c1 [Cpd 91, (3S)-3-cyclopropyl-3-[3-[[1-(2-fluoro-5-methoxy-phenyl)-5-(2-methylprop-1-enyl)imidazol-4-yl]methoxy]phenyl]propanoic acid]	477 nM and 413 nM
